What was measured:
Assay in all cases: selective drug sensitivity score (sDSS, relative to normal bone marrow) (sDSS (score)); higher = more potent and effective on the cell line relative to normal bone marrow cells
Settings in all cases: 72 h
COG-LL-319h = test system: COG-LL-319h
NALL-1 = test system: NALL-1
REH = test system: REH
MHH-CALL-2 = test system: MHH-CALL-2
COG-LL-402h = test system: COG-LL-402h
KARPAS-45 = test system: KARPAS-45
RPMI-8402 = test system: RPMI-8402
P12-ICHIKAWA = test system: P12-ICHIKAWA
SEM cells = test system: SEM cells
ALL-SIL = test system: ALL-SIL
PF-382 = test system: PF-382
TMD5 = test system: TMD5
MOLT-16 = test system: MOLT-16
NALM-16 = test system: NALM-16
COG-LL-355h = test system: COG-LL-355h
KASUMI-9 = test system: KASUMI-9
LC4-1 = test system: LC4-1
CCRF-CEM = test system: CCRF-CEM
KOPN-8 = test system: KOPN-8
COG-LL-394h = test system: COG-LL-394h
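Note: ALL cell lines in 384-well plates, five doses spanning 10,000-fold, each plate scaled between vehicle and 100 µmol/L benzalkonium chloride controls, sDSS an adapted area-under-curve metric.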

| SMILES | selective drug sensitivity score (COG-LL-319h) | selective drug sensitivity score (NALL-1) | selective drug sensitivity score (REH) | selective drug sensitivity score (MHH-CALL-2) | selective drug sensitivity score (COG-LL-402h) | selective drug sensitivity score (KARPAS-45) | selective drug sensitivity score (RPMI-8402) | selective drug sensitivity score (P12-ICHIKAWA) | selective drug sensitivity score (SEM cells) | selective drug sensitivity score (ALL-SIL) | selective drug sensitivity score (PF-382) | selective drug sensitivity score (TMD5) | selective drug sensitivity score (MOLT-16) | selective drug sensitivity score (NALM-16) | selective drug sensitivity score (COG-LL-355h) | selective drug sensitivity score (KASUMI-9) | selective drug sensitivity score (LC4-1) | selective drug sensitivity score (CCRF-CEM) | selective drug sensitivity score (KOPN-8) | selective drug sensitivity score (COG-LL-394h) |
| --- | --- | --- | --- | --- | --- | --- | --- | --- | --- | --- | --- | --- | --- | --- | --- | --- | --- | --- | --- | --- |
| OC[C@H]1O[C@@H](n2cnc3c2N=CNC[C@H]3O)C[C@@H]1O [Pentostatin] (top concentration 10000 nM) | 3.06 | -0.44 | -0.44 | -0.44 | -0.44 | -0.14 | -0.44 | -0.44 | -0.44 | -0.44 | -0.44 | -0.24 | -0.34 | -0.44 | 1.26 | -0.44 | -0.44 | -0.34 | -0.14 | -0.44 |
| COc1cc(OC2CCN(C)CC2)ccc1Nc1ncc2c(n1)n(C1CCCC1)c(=O)n2C [AZ3146] (top concentration 10000 nM) | 7.04 | -2.16 | 1.14 | 1.94 | -0.56 | 0.94 | 1.94 | 0.64 | 2.04 | 2.14 | -0.86 | -4.06 | 0.44 | -2.56 | 2.94 | -0.36 | 3.14 | 0.94 | 4.54 | 1.04 |
| COc1cc2nccc(Oc3ccc(NC(=O)C4(C(=O)Nc5ccc(F)cc5)CC4)cc3)c2cc1OC [Cabozantinib] (top concentration 1000 nM) | -2.22 | -3.62 | 4.58 | -3.62 | -3.62 | -2.42 | -1.62 | -3.62 | 17.6 | 4.48 | -3.62 | -3.62 | -3.62 | 2.68 | 2.18 | -3.62 | -3.02 | -3.62 | 24.9 | 0.18 |
| COc1ncc(-c2ccc3nccc(-c4ccnnc4)c3c2)cc1NS(=O)(=O)c1ccc(F)cc1F [Omipalisib] (top concentration 1000 nM) | 9.8 | 4.5 | 14.4 | 11 | 13.4 | 9.4 | 10.9 | 4 | 9.4 | 4.6 | 9.8 | -2.2 | 10 | 8.1 | 19.5 | 12.6 | 1.6 | 12 | 15.1 | -1.1 |
| Cn1cc(C2=C(c3cn(C4CCN(Cc5ccccn5)CC4)c4ccccc34)C(=O)NC2=O)c2ccccc21 [Enzastaurin] (top concentration 10000 nM) | 2.26 | -0.34 | 3.66 | 0.66 | 5.16 | 4.86 | 5.86 | 4.66 | 6.76 | 3.96 | 3.36 | 0.06 | 4.66 | 5.56 | 6.76 | 4.36 | 3.26 | 5.06 | 2.46 | 6.86 |
| COc1cc2nccc(Oc3ccc(NC(=O)Nc4cc(C)on4)c(Cl)c3)c2cc1OC [Tivozanib] (top concentration 10000 nM) | 12.6 | -1.74 | 0.36 | -0.34 | 3.96 | 3.86 | 1.76 | 2.66 | 4.76 | 27 | 1.36 | 5.66 | 3.66 | -3.44 | -1.04 | 2.46 | 5.96 | 1.26 | 9.06 | 1.46 |
| CC[C@]1(O)C[C@H]2CN(CCc3c([nH]c4ccccc34)[C@@](C(=O)OC)(c3cc4c(cc3OC)N(C)[C@H]3[C@@](O)(C(=O)OC)[C@H](OC(C)=O)[C@]5(CC)C=CCN6CC[C@]43[C@@H]65)C2)C1 [Vinblastine] (top concentration 1000 nM) | 19.7 | -3.8 | 7.1 | -3.2 | 4.6 | -4.2 | 1.6 | -3.5 | 10.8 | 5.2 | -5.3 | -4.9 | 0.7 | 5.4 | -0.6 | 14.9 | 13.6 | -1.5 | 12.8 | -0.1 |
| CN1CCN(CCOc2cc(OC3CCOCC3)c3c(Nc4c(Cl)ccc5c4OCO5)ncnc3c2)CC1 [Saracatinib] (top concentration 10000 nM) | 12.8 | -2.02 | -2.02 | -0.52 | 8.68 | 5.68 | 4.98 | 0.08 | 0.08 | 17.7 | 8.18 | 0.58 | 2.38 | -2.02 | 0.48 | 2.98 | 2.98 | -1.52 | 2.38 | -2.02 |
| CC1=C(/C=C/C(C)=C/C=C/C(C)=C/C(=O)O)C(C)(C)CCC1 [Tretinoin] (top concentration 10000 nM) | -2.4 | -2.4 | -1.8 | -1.7 | -2.4 | -1.8 | -2.4 | -2.4 | 0 | -2.4 | -2.4 | -2.4 | -2.4 | -2.4 | -1 | 3.4 | -2.4 | -2.3 | 0.4 | -2.4 |
| CN1CCN(c2ccc(C(=O)Nc3n[nH]c4ccc(Cc5cc(F)cc(F)c5)cc34)c(NC3CCOCC3)c2)CC1 [Entrectinib] (top concentration 1000 nM) | -1.2 | -0.3 | -1.2 | -0.8 | -0.7 | -0.9 | -1.2 | -1.2 | 3.5 | -0.6 | -1.2 | -0.5 | -1.2 | 0.5 | 1.5 | -1.1 | -1.2 | -1.2 | 0.1 | 0.2 |
| CNS(=O)(=O)Nc1nccc(Cc2c(C)c3ccc(Oc4ncccn4)cc3oc2=O)c1F (top concentration 1000 nM) | -1.18 | 2.22 | -0.38 | 1.32 | -1.18 | -0.28 | 0.12 | -0.98 | 1.82 | 0.42 | -0.18 | -1.18 | 1.42 | 0.72 | 0.02 | 0.02 | -0.18 | -1.18 | 2.42 | 1.12 |
| Cc1sc2c(c1C)C(c1ccc(Cl)cc1)=N[C@@H](CC(=O)Nc1ccc(OCCOCCOCCOCCNc3cccc4c3C(=O)N(C3CCC(=O)NC3=O)C4=O)cc1)c1nnc(C)n1-2 (stereo not given in full) [ARV-825] (top concentration 300 nM) | 4.04 | -12.1 | -0.26 | 4.94 | 3.74 | -8.06 | 1.04 | -7.46 | 2.24 | -6.46 | 0.14 | 0.14 | 1.44 | 0.74 | 10.2 | 6.64 | 3.64 | -2.66 | 4.14 | -0.96 |
| CC/C(=C(\c1ccc(O)cc1)c1ccc(OCCN(C)C)cc1)c1ccccc1 [4-hydroxytamoxifen] (top concentration 10000 nM) | -4.48 | -1.78 | 4.02 | 2.12 | -3.48 | 1.52 | 2.62 | 2.02 | 1.62 | 1.22 | 2.52 | -1.78 | 3.02 | -2.88 | 1.72 | 3.62 | 0.72 | 1.52 | 3.22 | 2.12 |
| CC[C@]1(O)C[C@H]2CN(CCc3c([nH]c4ccccc34)[C@@](C(=O)OC)(c3cc4c(cc3OC)N(C=O)[C@H]3[C@@](O)(C(=O)OC)[C@H](OC(C)=O)[C@]5(CC)C=CCN6CC[C@]43[C@@H]65)C2)C1 [Vincristine] (top concentration 1000 nM) | 16.3 | -0.88 | 17.5 | 5.52 | 13.7 | 5.92 | 4.72 | 4.52 | 12.7 | 13.1 | -0.18 | -0.08 | 9.52 | 12.3 | 1.22 | 15.9 | 16.7 | 4.42 | 15.8 | 3.92 |
| CNC(=O)c1ccc(N2C(=S)N(c3ccc(C#N)c(C(F)(F)F)c3)C(=O)C2(C)C)cc1F [Enzalutamide] (top concentration 10000 nM) | 1.58 | -0.82 | -0.82 | -0.12 | 0.68 | -0.82 | 0.48 | -0.42 | -0.82 | -0.82 | 0.18 | -0.82 | 1.48 | -0.82 | -0.82 | -0.82 | 0.28 | -0.52 | 5.18 | -0.32 |
| CCc1cncnc1N1CCN(Cc2nc3cc(C(F)(F)F)ccc3[nH]2)CC1 (top concentration 10000 nM) | 1.46 | 8.66 | 6.26 | 5.56 | -0.84 | 2.46 | 5.96 | 3.66 | 9.76 | 1.76 | 2.96 | -0.84 | 4.86 | 0.06 | -0.14 | 3.86 | 4.16 | 0.36 | 8.36 | 4.56 |
| CC[C@@](C)(Nc1ccnc(-c2c[nH]c3ncccc23)n1)C(=O)NCC(F)(F)F [Decernotinib] (top concentration 10000 nM) | -3.94 | -3.94 | -3.94 | -3.94 | -3.94 | -3.94 | -3.44 | -3.94 | -2.74 | -2.44 | -3.94 | -1.74 | -3.94 | -3.94 | -3.94 | -3.74 | -3.94 | -3.94 | -3.94 | -3.94 |
| COC(=O)c1ccc2c(c1)[nH]c1ncnc(NCCCN3CCCCC3)c12 [UM729] (top concentration 10000 nM) | -0.06 | -0.06 | 0.24 | -0.06 | 6.34 | 2.34 | 2.34 | -0.06 | 2.14 | 1.44 | 1.24 | -0.06 | 0.94 | 0.44 | 1.44 | 2.44 | 1.54 | 3.84 | 2.84 | 4.34 |

Reference: the supplement of paper PMC8967900
